Values after ≈ are worked out from the molar mass of the structure shown.
Key:
[1] = AUC in rat at 2 mg/kg, po measured after 12 hrs; type: ADME, organism-based; design: time 12 hrs, dose 2 mg/kg, route po; settings: in vivo
[2] = Cmax in rat at 1 mg/kg, iv measured after 12 hrs; type: ADME, organism-based; design: dose 1 mg/kg, time 12 hrs, route iv; settings: in vivo
[3] = AUC in dog at 2 mg/kg, po; type: ADME, organism-based, Canis lupus familiaris; design: dose 2 mg/kg, route po; settings: in vivo
[4] = Clearance in dog hepatocytes measured per 10^6 cells; type: ADME, cell-based, Canis lupus familiaris, Hepatocyte; settings: read-out: CLH
[5] = Half life in rat at 2 mg/kg, po measured after 12 hrs; type: ADME, organism-based; settings: in vivo
Ketohexokinase [6] = target: T1, Ketohexokinase (Homo sapiens, UniProt P50053); experiment: Inhibition of human KHK-C preincubated for 15 mins followed by substrate addition and measured after 20 mins in presence of ATP by Rapidfire MS analysis
T1 sequence (P50053 whole entry): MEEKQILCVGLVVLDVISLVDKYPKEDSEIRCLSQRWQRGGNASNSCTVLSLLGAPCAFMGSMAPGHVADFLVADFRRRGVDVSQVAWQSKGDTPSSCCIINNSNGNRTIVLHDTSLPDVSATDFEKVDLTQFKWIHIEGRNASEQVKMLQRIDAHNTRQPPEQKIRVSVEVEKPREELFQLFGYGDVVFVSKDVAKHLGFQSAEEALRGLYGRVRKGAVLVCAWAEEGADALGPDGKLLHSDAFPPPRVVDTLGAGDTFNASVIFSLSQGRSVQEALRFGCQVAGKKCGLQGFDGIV

[7] = Metabolic stability in dog liver microsomes assessed as compound degradation measured after 30 mins; type: ADME, Canis lupus familiaris, Microsome; settings: read-out: Drug degradation
[8] = Clearance in rat at 1 mg/kg, iv measured after 12 hrs; type: ADME, organism-based; settings: in vivo
Hepatocyte = experiment: Cytotoxicity against rat Primary hepatocyte; type: toxicity, cell-based; settings: hepatocytes
[9] = Cmax in dog at 2 mg/kg, po; type: ADME, organism-based, Canis lupus familiaris; design: dose 2 mg/kg, route po; settings: in vivo
[10] = Thermodynamic solubility of the compound […] at pH 7.4; type: physicochemical; settings: read-out: Therm_solubility
[11] = Half life in dog at 2 mg/kg, po; type: ADME, organism-based, Canis lupus familiaris; settings: in vivo
[12] = Oral bioavailability in rat at 2 mg/kg measured after 12 hrs; type: ADME, organism-based; settings: in vivo
[13] = AUC in dog at 1 mg/kg, iv; type: ADME, organism-based, Canis lupus familiaris; design: dose 1 mg/kg, route iv; settings: in vivo
[14] = Half life in dog at 1 mg/kg, iv; type: ADME, organism-based, Canis lupus familiaris; settings: in vivo
[15] = Permeability in MDCK cells assessed as drug transport measured over 1 hr in presence of P-gp; type: ADME, cell-based, Canis lupus familiaris; settings: dog
[16] = Drug distribution in mouse kidney at 30 mg/kg, po measured at 180 mins; type: ADME, organism-based; settings: in vivo, 3 h
[17] = Volume of distribution in dog at 1 mg/kg, iv; type: ADME, organism-based, Canis lupus familiaris; settings: in vivo
[18] = Tmax in dog at 2 mg/kg, po; type: ADME, organism-based, Canis lupus familiaris; settings: in vivo
[19] = Unbound fraction in dog plasma at 1 uM; type: ADME, cell-free, Canis lupus familiaris
[20] = Drug distribution in mouse liver at 30 mg/kg, po measured at 180 mins; type: ADME, organism-based; settings: in vivo, 3 h
[21] = Clearance in dog at 1 mg/kg, iv; type: ADME, organism-based, Canis lupus familiaris; settings: in vivo
[22] = Metabolic stability in rat liver microsomes assessed as compound degradation measured after 30 mins; type: ADME, Microsome; settings: read-out: Drug degradation
Mus musculus = experiment: Reduction in fructose level in 5 hrs fasted C57B6 mouse by measuring pharmacodynamic response administered via oral gavage for 30 mins followed by oral fructose challenge and measured upto 180 mins by oral fructose tolerance test; type: functional; settings: dose 30-100 mg/kg, time […]
[23] = Tmax in rat at 2 mg/kg, po measured after 12 hrs; type: ADME, organism-based; settings: in vivo
[24] = Cmax in rat at 2 mg/kg, po measured after 12 hrs; type: ADME, organism-based; design: time 12 hrs, dose 2 mg/kg, route po; settings: in vivo
Ketohexokinase [25] = target: T1, Ketohexokinase; experiment: Inhibition of KHK in human HepG2 cells incubated for 3 hrs by Rapidfire MS analysis; type: cell-based
[26] = Unbound fraction in rat plasma at 1 uM; type: ADME, cell-free
[27] = Metabolic stability in human liver microsomes assessed as compound degradation measured after 30 mins; type: ADME, Microsome; settings: read-out: Drug degradation
[28] = AUC in rat at 1 mg/kg, iv measured after 12 hrs; type: ADME, organism-based; design: time 12 hrs, dose 1 mg/kg, route iv; settings: in vivo
[29] = Volume of distribution in rat at 1 mg/kg, iv measured after 12 hrs; type: ADME, organism-based; settings: in vivo
[30] = Unbound fraction in human plasma at 1 uM; type: ADME, cell-free
[31] = Metabolic stability in mouse liver microsomes assessed as compound degradation measured after 30 mins; type: ADME, Microsome; settings: read-out: Drug degradation
[32] = Oral bioavailability in dog at 2 mg/kg; type: ADME, organism-based, Canis lupus familiaris; settings: in vivo
[33] = Clearance in rat hepatocytes measured per 10^6 cells; type: ADME, cell-based, Hepatocyte; settings: read-out: CLH
[34] = Drug distribution in mouse heart at 30 mg/kg, po measured at 180 mins; type: ADME, organism-based; settings: in vivo, 3 h
[35] = Half life in rat at 1 mg/kg, iv measured after 12 hrs; type: ADME, organism-based; settings: in vivo
[36] = Inhibition of mouse KHK-A
[37] = Clearance in human hepatocytes measured per 10^6 cells; type: ADME, cell-based, Hepatocyte; settings: read-out: CLH
[38] = Cmax in dog at 1 mg/kg, iv; type: ADME, organism-based, Canis lupus familiaris; design: dose 1 mg/kg, route iv; settings: in vivo
[39] = Unbound fraction in mouse plasma at 1 uM; type: ADME, cell-free

## C[C@H]1CCN1c1nc(-c2cnn(CC(=O)N3CCNCC3)c2)cc(C(F)(F)F)n1 [LY-3522348]
[1]
  AUC at 12 h: 11.6 µM·h
[2]
  Cmax: 942 nM
[3]
  AUC: 23.2 µM·h
[4]
  hepatocyte CLint: < 1.8 µL/min/1e6 cells
[5]
  half-life: 13 h
Ketohexokinase [6]
  IC50: 20 nM
[7]
  metabolised at 0.5 h: 28%
[8]
  clearance: 6 mL/min/kg
Hepatocyte
  LC20: > 50000 nM
[9]
  Cmax: 657 nM
[10]
  solubility thermodynamic: 520 µg/mL (≈ 1270 µM)
[11]
  half-life: 37 h
[12]
  bioavailability: 83%
[13]
  AUC: 12.9 µM·h
[14]
  half-life: 28 h
[15]
  Drug transport: 4.4%
[16]
  Drug uptake: Active
[17]
  Vd: 7.8 L/kg
[18]
  Tmax: 1.7 h
[19]
  fraction unbound at 1 µM: 0.24
[20]
  Drug uptake: Active
[21]
  clearance: 3 mL/min/kg
[22]
  metabolised at 0.5 h: 18%
Mus musculus
  Activity: Dose-Dependent Effect
[23]
  Tmax: 4.7 h
[24]
  Cmax: 717 nM
Ketohexokinase [25]
  IC50: 41 nM
[26]
  fraction unbound at 1 µM: 0.18
[27]
  metabolised at 0.5 h: 0%
[28]
  AUC at 12 h: 7.06 µM·h
[29]
  Vd: 6.5 L/kg
[30]
  fraction unbound at 1 µM: 0.15
[31]
  metabolised at 0.5 h: 17%
[32]
  bioavailability: 87%
[33]
  hepatocyte CLint: 2.2 µL/min/1e6 cells
[34]
  Drug uptake: Active
[35]
  half-life: 13 h
[36]
  IC50: 14 nM
[37]
  hepatocyte CLint: < 1.8 µL/min/1e6 cells
[38]
  Cmax: 3000 nM
[39]
  fraction unbound at 1 µM: 0.15

Source: ChEMBL document CHEMBL5375962 (J Med Chem, 2023)
